Laboratory results reported in a melting point compilation (Tetko et al.; mined from patent text by program, amines drawn as free bases though some values may be those of a salt).

First: CNc1nc(-c2cccc(N)c2)c2cc(OC)c(OC)cc2n1
Second: CCOc1cc2nc(CN(C)C)nc(Nc3cccc(-c4csc(C)n4)c3)c2cc1OCC
The melting point of the first is higher: 197 to 199 °C for the first, 170 to 172 °C for the second.

First: CCCC(=O)N(C)Cc1c(-c2ccc(C)cc2)nc2n1-c1ccccc1CC2
Second: CCOC(=O)c1nn(-c2ccc(C=O)cc2)nc1-c1ccccc1
The melting point of the first is higher: 110 to 112 °C for the first, 96 to 97 °C for the second.

First: Brc1ccc2c(c1)N=C(N1CCN(Cc3ccccc3)CC1)c1cccc3c1N2CC3
Second: Cc1ccc(S(=O)(=O)N2CCN(Cc3ccccc3)CCN(S(=O)(=O)c3ccc(C)cc3)CCN(S(=O)(=O)c3ccc(C)cc3)CC2)cc1
The melting point of the first is lower: 129 to 131 °C for the first, 208 to 210 °C for the second.

Compared with `COCC(C)(Oc1ccc(CC(=O)Nc2cc(C)cc(C)c2)cc1)C(=O)O` (centres undefined), `COc1ccc(CCCOc2ccc(C(=O)O)cc2)cc1OC` is lower in melting point: 170 to 172 °C for the first, 150 to 154 °C for the second.

First: COc1ccc(-c2coc(C#N)cc2=O)cc1
Second: COc1ccc(Cc2ccc(C#N)cc2)cc1
The melting point of the first is higher: 165 to 167 °C for the first, 41.5 to 43.5 °C for the second.

First: CN(C)C1CCN(S(=O)(=O)c2cc(C#N)ccc2Oc2cc(F)ccc2F)CC1
Second: CCC1(CCCCN2CCN(c3cccc(Cl)c3)CC2)C(=O)Nc2cc(F)ccc21 (centres undefined)
The melting point of the first is higher: 154 to 157 °C for the first, 116 to 117 °C for the second.

First: CC(=O)Nc1cc(=O)c2cc(Oc3ccccc3)c(NS(C)(=O)=O)cc2o1
Second: CSc1c(O)cncc1Oc1ccccc1
The melting point of the first is higher: 236 to 238 °C for the first, 131 to 133 °C for the second.

Compared with `CC(C)(C)OC(=O)NC1CCCCc2cc(OCC3CCCCC3)ccc21` (centres undefined), `O=C(c1ccc(-c2ccc(Cl)cc2)cc1)N1CCCc2cc(C=CCN3CCCCC3)ccc21` is higher in melting point: 125 to 126 °C for the first, 141 to 143 °C for the second.

First: Brc1cnn2ccc(N3CCNCC3)nc12
Second: COc1ccc(NC(=O)c2coc(Br)c2)cc1N1CCN(C)CC1
The melting point of the first is lower: 108 to 109 °C for the first, 185 to 187 °C for the second.

First: CC(=O)NCCCC(=O)NCCCC(=O)c1ccc(Cl)cc1CCC(=O)O
Second: CCCCCC(O)CCc1ccc(CCCCCCCC(=O)O)o1 (centres undefined)
The melting point of the first is higher: 108 °C for the first, 43 to 45 °C for the second.

First: FC(F)(F)c1cc(C(F)(F)F)n(-c2ccc(NCc3ccccc3Cl)cc2)n1
Second: Cc1ccc(Nc2nnc(-c3ccc(SC(F)(F)F)cc3)s2)cc1Cl
The melting point of the first is higher: 240 °C for the first, 215 to 216 °C for the second.

Compared with `CN(C)NC(=O)c1ccc(-c2ccc(Cl)cc2)o1`, `COC(=O)CCCc1oc(Cl)nc1-c1ccc(Cl)cc1` is lower in melting point: 150 to 152 °C for the first, 73 to 74 °C for the second.

First: Cc1cc(C2=C(c3cccc(F)c3)C(=O)C(C)(C)O2)ccc1S(N)(=O)=O
Second: Cc1nnc(-c2ccc3occ(-c4cccc(F)c4)c3c2)o1
The melting point of the first is lower: 81 to 82 °C for the first, 138 to 139 °C for the second.

Compared with `CN1C(c2ccc(Br)cc2)C2C(=O)N(Cc3ccc4c(c3)OCO4)C(O)C2C1(C)C` (centres undefined), `O=C1N(Cc2ccc(Cl)cc2)c2ccc(Br)cc2C1(O)c1ccc2c(c1)OCO2` (centres undefined) is higher in melting point: 158 to 159 °C for the first, 179 to 180 °C for the second.

First: CC(=O)c1c(F)ccc(NC2OC(=O)CC(=O)O2)c1F
Second: C[C@H](OC(=O)Oc1ccc([N+](=O)[O-])cc1)C(=O)N[C@@H]1C(=O)Nc2c(F)cccc2O[C@@H]1C
The melting point of the first is lower: 82 to 84 °C for the first, 140 to 145 °C for the second.

Compared with `CCSc1ccc2c(c1)NC(=O)C2`, `CCNC(=O)c1ccc2c(c1)Nc1ccccc1S2` is higher in melting point: 125 to 126 °C for the first, 150 to 151 °C for the second.

First: COc1ccc2c(c1)CCc1c(C(F)F)nn(-c3ccc(S(N)(=O)=O)cc3)c1-2
Second: COc1ccc(Cl)cc1NC(=O)[C@H]1[C@H](c2ccc(S(N)(=O)=O)cc2)C1(C)C (relative stereo)
The melting point of the first is higher: 256 to 257 °C for the first, 129 to 133 °C for the second.

First: CSc1c(C#N)nn(-c2c(Br)cc(C(F)(F)F)cc2Br)c1N
Second: CCC(=O)On1c(=O)c(=O)[nH]c2cc(C(F)(F)F)c(C#N)cc21
The melting point of the first is lower: 211 to 214 °C for the first, 227 °C for the second.

First: CC(C)(C)c1cc(SC2(Sc3cc(C(C)(C)C)c(O)c(C(C)(C)C)c3)CCCC2)cc(C(C)(C)C)c1O
Second: O=C1c2cccc(-n3c(=O)[nH]c4ncccc4c3=O)c2C2CCCCN12 (centres undefined)
The melting point of the first is lower: 138 to 143 °C for the first, greater than 290 °C for the second.

Compared with `CC(C)COC(=O)CCC12CCC(=O)N1C(=O)CC2`, `CNc1ncc2c(=O)n(C)c(=O)n(C)c2n1` is higher in melting point: 102 to 104 °C for the first, 260 °C for the second.

First: NS(=O)(=O)c1cc(Cc2ccccc2)c(O)c2ccccc12
Second: CCOC(=O)Cc1nc2c(OCc3ccccc3)cccc2n1C
The melting point of the first is higher: 167 to 168 °C for the first, 106 °C for the second.

Compared with `COc1ccc(-c2cnc3cc4[nH]ncc4cc3n2)cc1F`, `COc1ccc(-c2ccc3nnn(Cc4ccc5ncccc5c4)c3n2)cc1F` is lower in melting point: greater than 250 °C for the first, 187 to 190 °C for the second.

First: CCS(=O)c1nsc(NC(=O)NC)c1C(N)=O (centres undefined)
Second: CCc1cc([N+](=O)[O-])c(N)c([N+](=O)[O-])c1COC
The melting point of the first is higher: 245 °C for the first, 71 to 73 °C for the second.

First: O=C(CC(Cc1ccccc1)C(=O)O)c1cccc(Cl)c1 (centres undefined)
Second: Cc1cccc(COc2cccc(OCc3ccc(C(C)C)cc3)c2)c1C(=O)O
The melting point of the first is lower: 85 to 89 °C for the first, 132 to 133 °C for the second.

First: CS(=O)c1cccc(CNC(=O)c2nc3scc(COCc4ccc(C(=O)O)cc4)c3c(=O)[nH]2)c1 (centres undefined)
Second: O=C(Nc1cccc(-c2ccc(C(=O)O)cc2)c1)OCC1c2ccccc2-c2ccccc21
The melting point of the first is higher: 227 to 228 °C for the first, 110 to 112 °C for the second.

First: Cc1ccc2c(c1)c(N1CCN(C(=O)c3cccs3)CC1)c(C#N)c(=O)n2CCN1CCOCC1
Second: O=C1NC(=O)c2c1c(-c1ccccc1Cl)cc1c2c(Br)cn1CCCN1CCOCC1
The melting point of the first is higher: 207 °C for the first, 117 to 120 °C for the second.

First: COc1ccccc1N1CCN(C(=O)c2ccccc2C(c2ccc(OC(C)C)cc2)c2ccc(OC(C)C)cc2)CC1
Second: COC(=O)c1ccc(Oc2ccc(Oc3ccccc3)cc2)cc1
The melting point of the first is higher: 120 to 121 °C for the first, 14 °C for the second.

Compared with `COc1cc(Cl)c(N=C2NCCN2O)c(Cl)c1`, `Cc1c2c(nn1C)N(c1ccc(Cl)cc1Cl)CCC2` is lower in melting point: 199 to 201 °C for the first, 66.6 to 76.6 °C for the second.

First: O=C(O)CCc1ccc(C(c2cc(F)ccc2F)S(=O)(=O)c2ccc(Cl)cc2)nc1 (centres undefined)
Second: CC(C)(SCc1ccccn1)C(NS(=O)(=O)c1ccc(Oc2ccc(-c3ccoc3)cc2)cc1)C(=O)O (centres undefined)
The melting point of the first is lower: 158 to 160 °C for the first, 185 to 189 °C for the second.

First: Cc1ccc(C2CCCN2S(=O)(=O)c2ccc(C)cc2)cc1 (racemic)
Second: Cc1ccc(S(=O)(=O)NC2CCCCN(c3nc4c(c(=O)n(C)c(=O)n4C)n3Cc3ccccc3)C2)cc1 (centres undefined)
The melting point of the first is higher: 124 °C for the first, 80.2 to 88.2 °C for the second.

First: CCCOC(=O)c1ccc(OC(=O)c2ccccc2C(=O)Oc2ccc(C(=O)OCCC)cc2)cc1
Second: O=C(OCOC(=O)C1CCc2c(c3ccccc3n2C(=O)c2ccccc2)C1)c1ccccc1 (centres undefined)
The melting point of the first is higher: 87 to 89 °C for the first, 84 to 86 °C for the second.

First: O=c1[nH]c2cc(Cl)cc(Cl)c2c(O)c1Sc1ccccc1Cl
Second: CSc1nc2cc(Cl)ccc2n1C1CCN(CCCn2c(=O)[nH]c3ccccc32)CC1
The melting point of the first is higher: 285 to 288 °C for the first, 196 °C for the second.

`CCn1c(-c2cc3ccccc3[nH]2)nc(-c2ccncc2)c1-c1ccc(Cl)cc1` and `CC(=O)Oc1ccc(Cc2n[nH]c3c2c(=O)n(-c2ccccc2)c2ncccc32)cc1` cannot be ordered by melting point: 279 to 280 °C for the first, 278 to 282 °C for the second.

First: CC(C)Nc1c(-c2ccc(C#N)cc2)c(Cl)nc2ncnn12
Second: FC(F)(F)Oc1ccc(-c2nccc(Cl)n2)cc1
The melting point of the first is higher: 190 °C for the first, 70 to 73 °C for the second.

First: O=S1(=O)NCNc2ccc(F)cc21
Second: O=CC=C(c1ccc(F)cc1)c1ccc(F)cc1
The melting point of the first is higher: 159 to 165 °C for the first, 56 to 58 °C for the second.

First: C=CCOCc1ccc(-c2ncccc2S(=O)(=O)Nc2ncc(C)nc2OC)cc1
Second: COC(=O)C1(C)COC(c2nc(-c3ccc(F)cc3)c(-c3ccnc(S(C)(=O)=O)n3)[nH]2)OC1 (centres undefined)
The melting point of the first is lower: 72 to 76 °C for the first, 186 to 187 °C for the second.

Compared with `CCCCCCCCCCCCCCCCC(O)CN(C)CCO` (centres undefined), `CC(C)(C)OC(=O)C[C@H](O)CC#N` is higher in melting point: 39 to 40.6 °C for the first, 63 to 64 °C for the second.

First: O=C(N1CC(CCl)c2c1cc([N+](=O)[O-])c1ccccc21)C(F)(F)F (centres undefined)
Second: Cn1cc(C=C2SC(=S)N(CC(=O)O)C2=O)c2ccccc21
The melting point of the first is lower: 182 °C for the first, 282 to 288 °C for the second.

Compared with `COc1ccc2ccccc2c1CCNC(C)=O`, `COc1ccc(N2Cc3ccccc3P2(=O)C(C)C)cc1` (centres undefined) is lower in melting point: 139 °C for the first, 135 to 137 °C for the second.

First: COc1ccc(-c2noc(C)n2)c(OC)c1C
Second: COc1cccc(CC(=O)O)c1OCCCc1cn(-c2ccc(F)cn2)nc1C(C)C
The melting point of the first is lower: 105 to 107 °C for the first, 125 to 126 °C for the second.

First: Oc1ccc(OCCCCI)cc1
Second: N=C(N)c1ccc(Cl)cc1
The melting point of the first is lower: 51 to 53 °C for the first, 266 to 268 °C for the second.

Compared with `CCOCc1ccc(C=C(C)c2ccc3c(c2)C(C)(C)CCO3)cc1`, `CC(=O)c1ccc(O)c(-n2nc3ccccc3n2)c1` is higher in melting point: 59 to 60 °C for the first, 147 °C for the second.

Compared with `COc1cc(O)nc(N)n1`, `CCOC(=O)c1cn(-c2nc3ccccc3s2)cn1` is higher in melting point: 106 to 107 °C for the first, 131 to 133 °C for the second.

First: COc1ccc2c(c1)cc(Cc1cc3cccc(OC)c3n1S(=O)(=O)c1ccccc1)n2S(=O)(=O)c1ccccc1
Second: CCc1cn2ccccc2c1S(=O)(=O)c1ccc(OCCCN(C)C(C)c2ccc(OC)c(OC)c2)cc1 (centres undefined)
The melting point of the first is higher: 168 to 170 °C for the first, 78 to 80 °C for the second.

First: CC(=NNC(=O)c1ccc(C(F)(F)F)cc1)c1ccncc1
Second: NC(=O)c1cccc(-c2ccnc3cc(Cc4cccc(C(F)(F)F)c4)sc23)c1
The melting point of the first is higher: 198 °C for the first, 191 to 192 °C for the second.

First: CN(CCc1cccc(OCC(=O)O)c1)c1cnc(-c2ccccc2)c(-c2ccccc2)n1
Second: Cc1c(Cc2ccccc2)c(=O)n(C)c2cc(OCc3nnn[nH]3)cc(OCc3nnn[nH]3)c12
The melting point of the first is lower: 174 to 176 °C for the first, 250 to 253 °C for the second.

First: O=C1CCCN1Cc1ccc2ccn(C3CCN(CCc4ccc(F)cc4)CC3)c2c1
Second: COc1ccc(Oc2ccc(OC(=O)NC(C)CCCC(C)C)cc2)cc1 (centres undefined)
The melting point of the first is higher: 106 to 108 °C for the first, 64 to 65 °C for the second.

First: FC(F)(F)c1ccc(Cl)nn1
Second: COCCOc1ccc2c(Cl)c(C#N)cnc2c1
The melting point of the first is lower: 51 to 52 °C for the first, 143 to 145 °C for the second.

First: CCOC(=O)C1N=c2ccsc2=CN1N (centres undefined)
Second: CCOC(=O)c1cn(-c2ccc(F)cc2F)c2nc(SCC)c(F)cc2c1=O
The melting point of the first is lower: 139 to 141 °C for the first, 170 to 171 °C for the second.

Compound `COCCN1C(C)=C(C(=O)OC)C(CCOC)(c2ccccc2Cl)C(C(=O)OC)=C1C` has a melting point of 120 to 121 °C.
